The target of this test is T1, His6-AspH315–758 (human aspartate/asparagine-β-hydroxylase, AspH) (Homo sapiens, UniProt Q12797).
T1 construct: N-Terminally His6-tagged human AspH315–758 (His6-AspH315–758) was produced in E. coli BL21 (DE3) cells; made in house; host or cells: E. coli BL21 (DE3), pET-28a(+) vector
T1 sequence (Q12797 315-758): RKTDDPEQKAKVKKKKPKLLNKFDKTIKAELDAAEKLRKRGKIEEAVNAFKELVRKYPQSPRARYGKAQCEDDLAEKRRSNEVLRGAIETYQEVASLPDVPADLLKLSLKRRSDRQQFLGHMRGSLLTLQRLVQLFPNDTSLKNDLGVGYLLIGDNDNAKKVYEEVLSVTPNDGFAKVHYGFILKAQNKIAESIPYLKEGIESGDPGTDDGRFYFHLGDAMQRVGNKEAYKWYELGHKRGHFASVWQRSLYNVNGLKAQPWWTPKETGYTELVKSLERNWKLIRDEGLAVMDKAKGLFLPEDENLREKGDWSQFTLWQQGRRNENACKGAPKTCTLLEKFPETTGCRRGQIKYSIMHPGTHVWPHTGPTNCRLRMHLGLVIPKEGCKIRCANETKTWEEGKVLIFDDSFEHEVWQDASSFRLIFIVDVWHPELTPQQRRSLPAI
The experiment in a line: SPE-MS AspH inhibition assay (LOPAC screen at fixed 20 μM and IC50 dose-response), hydroxylation of cyclic peptide hFX-CP101–119. It counts as biochemical.

Setting [1] is: LOPAC compound at 20uM, plate 3, conversion of substrate peptide.
The mark [2] stands for this setting: AspH activity, fixed compound concentration 20 μM, initial LOPAC screen, 0.5%v/v DMSO, read-out: Inhibition at 20 µM [%].
Setting [3] is: LOPAC compound at fixed 20 uM, plate 1, normalised to DMSO and 2,4-PDCA controls.
Setting [4] is: LOPAC compound at fixed 20 uM, substrate conversion, plate 1.

These results are taken from paper PMC7251097, “Aspartate/asparagine-β-hydroxylase: a high-throughput mass spectrometric assay for discovery of small molecule inhibitors” (Scientific Reports, 2020).

Where a name gives a salt, the structure may show the parent alone. Read-outs that look alike come from different tables or passages of the source.

For the compound `CN(C)c1ccc(O)c2c1C[C@H]1C[C@H]3[C@H](N(C)C)C(O)=C(C(N)=O)C(=O)[C@@]3(O)C(O)=C1C2=O` [Minocycline hydrochloride], the “Plate 3 (% conversion)” value under setting [1] is 8.64%.

Consider `O=C([O-])[C@H](CC(=O)N1C[C@H]2CCCC[C@H]2C1)Cc1ccccc1.O=C([O-])[C@H](CC(=O)N1C[C@H]2CCCC[C@H]2C1)Cc1ccccc1.[Ca+2]` [Mitiglinide calcium], for which the “Plate 3 (% conversion)” value under setting [1] is on record as 39.51%.

On to `NC(=O)c1ncn([C@@H]2O[C@H](CO)[C@@H](O)[C@H]2O)c1O` [Mizoribine], for which the “Plate 3 (% conversion)” value under setting [1] amounted to 41.03%.

For the compound `O=C(NCCN1CCOCC1)c1ccc(Cl)cc1` [Moclobemide], the “Plate 3 (% conversion)” value under setting [1] turned out to be 38.98%.

Usually IC50 stands for the midpoint of a concentration-inhibition curve. In the case of `O=c1c(-n2ccnn2)c[nH]n1-c1cc(N2CCOCC2)ncn1` [Molidustat, molidustat, reference compound], the IC50 (50 nM His6-AspH315–758, 1.0 μM hFX-CP101–119, 3 μM 2OG, 2 μM Fe(II), 50 mM HEPES pH 7.5, 20 °C, mean ± SD, n = 2 (2,4-PDCA n = 10), read-out: IC50) is 13.4 ± 1 µM.

With `CCc1c(C)[nH]c2c1C(=O)C(CN1CCOCC1)CC2` (stereo not drawn) [Molindone hydrochloride], the “Plate 3 (% conversion)” value under setting [1] came to 42.00%.

As to `CCOC(=O)[N-]c1cn(N2CCOCC2)n[o+]1` [Molsidomine], the “Plate 3 (% conversion)” value came out at 34.83%.

The term inhibition denotes the change of the read-out against control, counted positive when it falls. As for `O=c1c(O)c(-c2ccc(O)cc2O)oc2cc(O)cc(O)c12` [Morin, reference compound], the inhibition at 20 µM under setting [2] came out at 101%.

For the compound `CC(=O)Oc1cc(C(C)C)c(OCCN(C)C)cc1C` [Moxisylyte hydrochloride], the “Plate 3 (% conversion)” value under setting [1] is 37.49%.

`COc1nc(C)nc(Cl)c1NC1=NCCN1.Cl` [Moxonidine hydrochloride]: under setting [1], the “Plate 3 (% conversion)” value stood at 33.12%.

With `Br.NCc1cc(O)no1` [Muscimol hydrobromide], the “Plate 2 (% conversion)” value is 37.87%. The “Plate 2 (% inhibition)” value (20 µM) is on record as -5.71%.

On to `O=c1c(O)c(-c2cc(O)c(O)c(O)c2)oc2cc(O)cc(O)c12` [Myricetin, reference compound], for which the “Plate 3 (% conversion)” value is listed as 2.65%. The inhibition at 20 µM under setting [2] worked out at 99.4%.

In the case of `CCNc1nc2c(ncn2[C@H]2C[C@H](O)[C@@H](CO)O2)c(=O)[nH]1` [N2-Ethyl-2-deoxyguanosine], where the note is “LOPAC Plate 4, compound at 20 uM, substrate conversion”, the “% conversion” value was 26.09%.

Turning to `Nc1ccc(CCNc2ncnc3c2ncn3[C@@H]2O[C@H](CO)[C@@H](O)[C@H]2O)cc1` [N6-2-(4-Aminophenyl)ethyladenosine], under setting [3], the “Plate 1 (% inhibition)” value is reported as -0.97%. For the same compound, the “Plate 1 (% conversion)” value under setting [4] is recorded as 36.20%.

In the case of `OC[C@H]1O[C@@H](n2cnc3c(NC4CCCC4)ncnc32)[C@H](O)[C@@H]1O` [N6-Cyclopentyladenosine], the “Plate 1 (% inhibition)” value under setting [3] is on record as -4.07%.

As for `CN(C)C(=O)N=NC(=O)N(C)C` [N,N,N,N-Tetramethylazodicarboxamide], the “Plate 2 (% conversion)” value (LOPAC compound at 20uM, plate 2, conversion of substrate peptide) came to 38.74%. Also, where the note is “LOPAC compound at 20uM, plate 2, normalised to DMSO and 2,4-PDCA controls”, the “Plate 2 (% inhibition)” value is -8.32%.

Take `Nc1ccc(N2C(=O)c3ccccc3C2=O)c(Cl)c1` [N-(4-Amino-2-chlorophenyl)phthalimide]: the “Plate 1 (% inhibition)” value under setting [3] is on record as -9.54%. The “Plate 1 (% conversion)” value under setting [4] is given as 39.07%.

Turning to `CC(=O)NCCc1c[nH]c2ccc(O)cc12` [N-Acetyl-5-hydroxytryptamine], the “Plate 1 (% conversion)” value was 34.66% and the “Plate 1 (% inhibition)” value was 3.61%.

`CC(=O)N[C@@H](CS)C(=O)O` [N-Acetyl-L-Cysteine]: under setting [3], the “Plate 1 (% inhibition)” value is listed as 6.30%. In addition, the “Plate 1 (% conversion)” value under setting [4] turned out to be 33.76%.

Regarding `CCN(CC)CCNC(=O)c1ccc(NC(C)=O)cc1.Cl` [N-Acetylprocainamide hydrochloride], the “Plate 1 (% inhibition)” value under setting [3] is 3.70%. Moreover, the “Plate 1 (% conversion)” value under setting [4] stood at 34.63%.

On to `CC(=O)NCCc1c[nH]c2ccccc12` [N-Acetyltryptamine], for which the “Plate 1 (% inhibition)” value under setting [3] is given as -6.27%. The “Plate 1 (% conversion)” value under setting [4] came out at 37.98%.

As for `CC(=O)NBr` [N-Bromoacetamide], the “Plate 1 (% inhibition)” value under setting [3] is listed as 71.66%. Besides, the “Plate 1 (% conversion)” value under setting [4] is recorded as 11.81%.

In the case of `Clc1ccc2c(c1)N=C(N1CCNCC1)c1ccccc1N2` [N-Desmethylclozapine], the inhibition at 20 µM (LOPAC compound at 20uM, plate 2, normalised to DMSO and 2,4-PDCA controls, read-out: Plate 2 (% inhibition)) is -3.91%.
